According to ChEMBL document CHEMBL1129530, “Novel alpha-amino-3-hydroxy-5-methylisoxazole-4-propionate receptor antagonists: synthesis and structure-activity relationships of 6-(1H-imidazol-1-yl)-7-nitro-2,3(1H,4H)-pyrido[2,3-b]pyrazinedione and related compounds” (J Med Chem, 1996):
pKi: −log10 of the molar value.

target: Glutamate receptor ionotropic, AMPA (Rattus norvegicus) (UniProt P19491+P19492+P19493+P19490); assay: Inhibition [3H]AMPA binding to ionotropic glutamate receptor AMPA in rat whole brain membranes in the presence of […] KSCN; format: cell membranes; conditions: not given

inhibition	Structure (SMILES)
56%	CS(=O)(=O)c1ccc2nc(O)c(O)nc2n1
41%	COc1ccc2nc(O)c(O)nc2n1
74%	Cc1cnc2nc(O)c(O)nc2c1
31%	Cc1ccc2nc(O)c(O)nc2n1
29%	Oc1nc2ccc(Cl)nc2nc1O
62%	Oc1nc2cncnc2nc1O
30%	CNc1ccc2nc(O)c(O)nc2n1
55%	CSc1ccc2nc(O)c(O)nc2n1
32%	Oc1nc2ccc(N3CCOCC3)nc2nc1O
32%	Oc1nc2ccncc2nc1O
37%	Oc1ccc2nc(O)c(O)nc2n1
22%	Oc1nc2cccnc2nc1O
66%	O=[N+]([O-])c1ccc2nc(O)c(O)nc2n1
76%	Oc1nc2ccc(-n3ccnc3)nc2nc1O

target: Glutamate receptor ionotropic, AMPA (Rattus norvegicus, UniProt P19490+P19491+P19492+P19493); assay: In vitro inhibition of the specific binding of [3H]AMPA to Ionotropic glutamate receptor AMPA in rat whole brain membranes in the presence of […] KSCN; format: cell membranes; conditions: not given

Structure (SMILES)	pKi
O=[N+]([O-])c1cc2nc(O)c(O)nc2nc1[N+](=O)[O-]	6.07
COc1nc2[nH]c(=O)c(=O)[nH]c2cc1[N+](=O)[O-]	6.15
O=[N+]([O-])c1cnc2nc(O)c(O)nc2c1	5.96
O=[N+]([O-])c1cc2nc(O)c(O)nc2nc1N1CCOCC1	6.04
O=[N+]([O-])c1cc2nc(O)c(O)nc2nc1-n1ccnc1	6.85

target: Glutamate receptor ionotropic, NMDA 1 (Rattus norvegicus) (UniProt P35439); assay: (§1) In vitro inhibition of the specific binding of [3H]Gly to N-methyl-D-aspartate glutamate receptor 1 in rat whole brain membranes except cerebellum; format: cell membranes; conditions: concentration not given here

Structure (SMILES)	inhibition
O=c1[nH]c2cc(-n3ccnc3)c([N+](=O)[O-])cc2[nH]c1=O	16%
O=[N+]([O-])c1cc2nc(O)c(O)nc2nc1N1CCOCC1	14%
O=[N+]([O-])c1cc2nc(O)c(O)nc2nc1-n1ccnc1	0%

target: Glutamate receptor ionotropic, NMDA 1 (Rattus norvegicus, UniProt P35439); assay: as §1; format: cell membranes; conditions: not given

Structure (SMILES)	pKi
O=[N+]([O-])c1cc2nc(O)c(O)nc2nc1[N+](=O)[O-]	5.10
COc1nc2[nH]c(=O)c(=O)[nH]c2cc1[N+](=O)[O-]	6.43
